# Target: T1, His-EBNA1 (DNA binding domain of EBNA1, amino acids 459-607) (Epstein-Barr virus, UniProt P03211)
# T1 construct: made in house; host or cells: E. coli
# Experiment: Inhibition of 5′-biotin-oPL4624 binding to His-EBNA1 using Alpha Screen technology
# Conditions: Alpha Screen Activity (IC50, inhibition of 5′-biotin-oPL4624 binding to His-EBNA1), 15 nM His-EBNA1, 0.2 nM bt-oPL4624, 2 hr room temperature
# Method in brief: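 His-tagged EBNA1 DNA-binding domain (aa 459-607, E. coli-expressed) at 15 nM with 0.2 nM biotinylated self-complementary oligo, streptavidin donor and nickel acceptor beads, in 25 mM Tris pH 7.2, 160 mM NaCl, 1 mM MgCl2. Compound 3.2 nM-100 μM final; AlphaScreen read after 2 h at room temperature, one-site dose-response fit.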
# T1 sequence (P03211 459-607): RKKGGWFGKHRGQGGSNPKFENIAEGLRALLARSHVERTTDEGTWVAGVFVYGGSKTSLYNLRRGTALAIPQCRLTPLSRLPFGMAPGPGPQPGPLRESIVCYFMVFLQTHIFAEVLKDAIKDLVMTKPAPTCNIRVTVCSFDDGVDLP
row,Compound,IC50
1,"O=C(NC1CC1)c1ccc(-c2c(C#Cc3ccccc3)cccc2C(=O)O)cc1 [Entry 138, 2-[4-(cyclopropylcarbamoyl)phenyl]-3-(2-phenylethynyl)benzoic acid]",10 to 100 µM
2,"COc1cc(OC)cc(-c2c(C#Cc3cccc(O)c3)cccc2C(=O)O)c1 [Entry 277, 2-(3,5-dimethoxyphenyl)-3-[2-(3-hydroxyphenyl)ethynyl]benzoic acid]",10 to 100 µM
3,"CN(C)S(=O)(=O)c1cccc(C#Cc2cccc(C(=O)O)c2-n2cccc2)c1 [Entry 37, 3-{2-[3-(dimethylsulfamoyl)phenyl]ethynyl}-2-(1H-pyrrol-1-yl)benzoic acid]",< 1 µM
4,"CN(C)CC#Cc1cccc(C(=O)O)c1-n1cccc1 [Entry 64, 3-[3-(dimethylamino)prop-1-yn-1-yl]-2-(1H-pyrrol-1-yl)benzoic acid]",100 to 1000 µM
5,"O=C(O)c1cccc(C#Cc2ccccc2)c1-c1ccc2cc[nH]c2c1 [Entry 129, 2-(1H-indol-6-yl)-3-(2-phenylethynyl)benzoic acid]",< 1 µM
6,"OCc1ccccc1C#Cc1cccc(-c2nnn[nH]2)c1 [Entry 285, {2-[3-(1H-tetrazol-5-yl)-phenylethynyl]-phenyl}-methanol]",10 to 100 µM
7,"Cc1noc(C)c1-c1c(C#Cc2ccccc2)cccc1C(=O)O [Entry 154, 2-(dimethyl-1,2-oxazol-4-yl)-3-(2-phenylethynyl)benzoic acid]",1 to 10 µM
8,"CN(C)c1ccc(-c2c(C#Cc3ccncc3)cccc2C(=O)O)cc1 [Entry 175, 2-[4-(dimethylamino)phenyl]-3-[2-(pyridin-4-yl)ethynyl]benzoic acid]",10 to 100 µM
9,"CNC(=O)c1cccc(C#Cc2cccc(C(=O)O)c2)c1 [Entry 287, 3-(3-methylcarbamoyl-phenylethynyl)-benzoic acid]",10 to 100 µM
10,"NC(=O)c1cccc(-c2c(C#Cc3cccc(O)c3)cccc2C(=O)O)c1 [Entry 267, 2-(3-carbamoylphenyl)-3-[2-(3-hydroxyphenyl)ethynyl]benzoic acid]",10 to 100 µM
11,O=C(O)c1cncc(C#Cc2ccc(F)cc2)c1-n1cccc1 [Entry 51],1 to 10 µM
12,"Nc1ccc(C#Cc2cccc(C(=O)O)c2-c2ccc3cc[nH]c3c2)cc1 [Entry 208, 3-(4-amino-phenylethynyl)-2-(1H-indol-6-yl)-benzoic acid]",1 to 10 µM
13,"CC(C)(N)C#Cc1cccc(C(=O)O)c1-c1ccc2cc[nH]c2c1 [Entry 246, 3-(3-amino-3-methylbut-1-ynyl)-2-(1H-indol-6-yl)benzoic acid]",1 to 10 µM
14,"C(#Cc1c[nH]c2ccccc12)c1cccc(-c2nnn[nH]2)c1 [Entry 284, 3-[3-(1H-tetrazol-5-yl)-phenylethynyl]-1H-indole]",< 1 µM
15,"O=C(O)c1cccc(C#Cc2ccc3cn[nH]c3c2)c1-n1cccc1 [Entry 8, 3-[2-(1H-indazol-6-yl)ethynyl]-2-(1H-pyrrol-1-yl)benzoic acid]",1 to 10 µM
16,"O=C(O)c1cccc(C#Cc2ccccc2)c1-c1ccc2[nH]ccc2c1 [Entry 253, 2-(1H-indol-5-yl)-3-(phenylethynyl)benzoic acid]",1 to 10 µM
17,"O=C(O)c1cc2cc(-c3c(C#Cc4cccc(O)c4)cccc3C(=O)O)ccc2[nH]1 [Entry 254, 5-(2-carboxy-6-((3-hydroxyphenyl)ethynyl)phenyl)-1H-indole-2-carboxylic acid]",10 to 100 µM
18,"O=C(O)c1cccc(C#CCNCc2ccccc2)c1-c1ccccc1 [Entry 157, 3-[3-(benzylamino)prop-1-yn-1-yl]-2-phenylbenzoic acid]",10 to 100 µM
19,"O=C(O)c1cc(F)cc(C#Cc2ccc(F)cc2)c1-n1cccc1 [Entry 60, 5-fluoro-3-[2-(4-fluorophenyl)ethynyl]-2-(1H-pyrrol-1-yl)benzoic acid]",100 to 1000 µM

row,Compound,IC50
1,"COc1cccc(-c2cn(-c3c(C#Cc4ccccc4)cccc3C(=O)O)nn2)c1 [Entry 110, 2-(4-(3-methoxyphenyl)-1H-1,2,3-triazol-1-yl)-3-(phenylethynyl)benzoic acid]",10 to 100 µM
2,"COc1cc(C#Cc2cccc(C(=O)O)c2-c2ccc3cc[nH]c3c2)cc(C(N)=O)c1 [Entry 252, 3-((3-carbamoyl-5-methoxyphenyl)ethynyl)-2-(1H-indol-6-yl)benzoic acid]",1 to 10 µM
3,"O=C(O)c1cccc(C#Cc2ccccc2)c1-n1cc(-c2ccccc2)nn1 [Entry 109, 2-(4-phenyl-1H-1,2,3-triazol-1-yl)-3-(2-phenylethynyl)benzoic acid]",10 to 100 µM
4,"O=C(O)c1cccc(C#Cc2ccc3[nH]ccc3c2)c1 [Entry 77, 3-[2-(1H-indol-5-yl)ethynyl]benzoic acid]",< 1 µM
5,"COc1ccc(C#Cc2cccc(C(=O)O)c2-c2ccc3cc[nH]c3c2)cc1 [Entry 210, 2-(1H-indol-6-yl)-3-(4-methoxy-phenylethynyl)-benzoic acid]",1 to 10 µM
6,"Cn1cc(-c2c(C#Cc3cscn3)cccc2C(=O)O)cn1 [Entry 219, 2-(1-methyl-1H-pyrazol-4-yl)-3-(thiazol-4-ylethynyl)benzoic acid]",10 to 100 µM
7,"COC(=O)c1cccc(C#Cc2cccc(C(=O)O)c2)c1 [Entry 183, 3-(3-carboxy-phenylethynyl)-benzoic acid methyl ester]",100 to 1000 µM
8,"O=C(O)c1cccc(C#Cc2ccccc2)c1N1CCCC1 [Entry 106, 3-(phenylethynyl)-2-(pyrrolidin-1-yl)benzoic acid]",10 to 100 µM
9,"CS(=O)(=O)Nc1cccc(C#Cc2cccc(C(=O)O)c2-c2ccc3cc[nH]c3c2)c1 [Entry 234, 2-(1H-indol-6-yl)-3-((3-(methylsulfonamido)phenyl)ethynyl)benzoic acid]",1 to 10 µM
10,"O=C(O)c1cccc(C#CCCO)c1-c1ccc2cc[nH]c2c1 [Entry 245, 3-(4-hydroxybut-1-ynyl)-2-(1H-indol-6-yl)benzoic acid]",< 1 µM
11,"O=C(O)c1cccc(C#Cc2ccc(F)cc2F)c1-c1ccc2cc[nH]c2c1 [Entry 229, 3-((2,4-Difluorophenyl)ethynyl)-2-(1H-indol-6-yl)benzoic acid]",1 to 10 µM
12,"O=C(O)c1cccc(/C=C/c2ccc(F)cc2)c1-n1cccc1 [Entry 146, 3-[(E)-2-(4-fluorophenyl)ethenyl]-2-(1H-pyrrol-1-yl)benzoic acid]",10 to 100 µM
13,"NS(=O)(=O)c1cccc(C#Cc2cccc(C(=O)O)c2-n2cccc2)c1 [Entry 4, 2-(1H-pyrrol-1-yl)-3-[2-(3-sulfamoylphenyl)ethynyl]benzoic acid]",< 1 µM
14,"Cc1ccc(C)n1-c1c(C#Cc2ccncc2)cccc1C(=O)O [Entry 192, 2-(2,5-dimethyl-pyrrol-1-yl)-3-pyridin-4-ylethynyl-benzoic acid]",10 to 100 µM
15,"Nc1cc(C#Cc2cccc(C(=O)O)c2-c2ccc3cc[nH]c3c2)ccn1 [Entry 240, 3-((2-aminopyridin-4-yl)ethynyl)-2-(1H-indol-6-yl)benzoic acid]",1 to 10 µM
16,Nc1c(C#Cc2ccc3[nH]ccc3c2)cccc1C(=O)O [Entry 81],< 1 µM
17,"O=C(O)c1cccc(C#Cc2ccccc2)c1-n1cc(CCCO)nn1 [Entry 112, 2-(4-(3-hydroxypropyl)-1H-1,2,3-triazol-1-yl)-3-(phenylethynyl)benzoic acid]",10 to 100 µM
18,"Cc1ccc(C#Cc2cccc(C(=O)O)c2-n2c(C)ccc2C)cc1 [Entry 21, 2-(2,5-dimethyl-1H-pyrrol-1-yl)-3-[2-(4-methylphenyl)ethynyl]benzoic acid]",< 1 µM

# Source: patent publication US10421718B2, “EBNA1 inhibitors and their method of use” (priority 2013, dated 2019)
